Assay results: article PMC9529094, “Identification of natural cytochalasins as leads for neglected tropical diseases drug discovery” (PLoS ONE, 2022)
Converted amounts (≈) assume the structure as drawn. Read-outs that look alike come from different tables or passages of the source.

Legend:
physchem = type: physicochemical; settings: aqueous buffer, kinetic from dmso stock
Procedure: The plate was sealed and shaken for 24 hours (200 rpm, r.t.). The precipitates on the incubation plate were removed by centrifugation (15 min., 3000 rpm, r.t.). The supernatant fractions were quantified by LC-MS/MS (liquid chromatography-tandem mass spectrometry) Prominence UFLC (Shimadzu Corporation, Kyoto, Japan) and interface with an LCMS-8045 triple quadrupole mass spectrometer (Shimadzu Corporation, Kyoto, Japan) with an electrospray ionization source (ESI). From a 10 mM standard solution, an intermediate standard dilution of 0.5 mM in a 1:1 acetonitrile:water solution was prepared. Calibration curves were prepared for each cytochalasin by diluting the intermediate standard several times to reach the desired concentrations of 50, 40, 20, 2, and 1 μM. The resulting equation for the calibration curve (y = mx + b) was used to calculate the experimental concentration values for the cytochalasins. The chromatogram for analysis was obtained on a Supelco Ascentis express C18 column (3 cm x 2.1 mm, 5 μM). The mobile phases consisted of water + 0.05% formic acid (A) and acetonitrile + 0.05% formic acid (B). The mobile phase was eluted in binary gradient mode, and the gradient was as follows: 0 min, 98% A; 1.2 mins. 2% A; 2.0 mins: 2% A; and re-equilibration time: 0.6 min., 98% A. The run time was 2 minutes, the sample injection volume was 5 μL, and the flow rate was 0.6 mL/min.

[1] = test system: intracellular L. infantum amastigotes; assay: microbe, parasite or virus in culture; type: cell-based, Leishmania infantum; settings: for IC50: intracellular amastigotes in THP-1 macrophages, 120 h, read-out: L. infantum IC50 (μM ± SD); for SI^2 (CC50 THP-1/IC50 L. infantum) / SI^4 (CC50 HepG2/IC50 L. infantum): selectivity index
Procedure: The epimastigote forms of the T. cruzi Tulahuen strain, which expresses the E. coli β-galactosidase gene lacZ [11], were grown in liver infusion tryptone (LIT) supplemented with 10% FCS (Cultilab) and 1% pen/strep (Sigma–Aldrich) at 28°C. Metacyclogenesis from epimastigotes to trypomastigotes was induced by the incubation of the epimastigotes in Grace’s insect medium (Sigma-Aldrich, 28°C) every 5 days. After 5 days, the trypomastigote forms were used to infect the HFF-1 cells. The promastigote forms of L. infantum were maintained in Schneider’s insect medium (Sigma-Aldrich) supplemented with 10% FCS (Cultilab) and 1% pen/strep (Sigma-Aldrich) at 28°C and subcultured every 6 or 7 days.
In the intracellular amastigote assay, THP-1 cells were seeded at 2x10^4/well (RPMI-1640, 100 μL) with phorbol 12-myristate 13-acetate (PMA) at 20 ng/mL for differentiation into macrophages. After incubation for 72 h (5% CO2, 37°C), the medium was aspirated, and late-stage L. infantum promastigotes were added (2x10^5/well, 100 μL). Following 24 h of incubation, the medium was aspirated to clear extracellular parasites, and the compounds were added in serial dilutions (2-fold) to final concentrations of 64–0.12 μM. The plates included negative controls (100% growth) and MIL (64–0.12 μM) as a positive control. After 120 h of incubation, the medium was removed, and the cells were fixed in methanol and stained with Giemsa. The average number of intracellular amastigotes per THP-1-cell was determined using an inverted microscope and a cell counter. Growth inhibition is expressed as a percentage of the average number of amastigotes per macrophage in the negative control wells. The IC50 values were obtained using GraphPad Prism version 8.0.
The analyses were performed using GraphPad Prism version 8.0 (GraphPad Software, San Diego, CA, USA). Both the IC50 and CC50 values were calculated by adjusting the sigmoid dose-response curves, and the selectivity index (SI) values were determined by CC50/IC50 [16]. Statistical analyses were performed using one-way ANOVA followed by Dunnett’s multiple comparison test.

in vitro = in vitro ADME; settings: pH 7.4, 0.5 μM compound, 0.25 mg/mL microsomes
Procedure: The metabolic stability of the cytochalasins was evaluated in human pooled liver human microsomes (20 mg/ml, GIBCO) and pooled liver CD1 mouse microsomes (20 mg/ml, GIBCO). Test cytochalasins were prepared at a concentration of 0.5 μM and incubated with 0.25 mg/mL liver microsomes at pH 7.4), and the DMSO concentration was lower than 1%. The reaction was started by adding the cofactor NADPH at […]. Samples were taken at time point 0 (immediately following the addition of the co-factor), 5, 10, 20, 30 and 60 minutes. The reaction was stopped by adding quench solution containing acetonitrile:methanol (1:1) (internal standard tolbutamide at 50 nM). The samples were centrifuged (3500 rpm/30 min.) to obtain the pellet of precipitated microsomal protein. The supernatant fractions were quantified by LC-MS/MS (liquid chromatography-tandem mass spectrometry) Prominence UFLC (Shimadzu Corporation, Kyoto, Japan) and interfaced with an LCMS-8045 triple quadrupole mass spectrometer (Shimadzu Corporation, Kyoto, Japan) with an electrospray ionization source (ESI). The peak area ratios (analyte/internal standard) were converted to the % remaining using the area ratio at time 0 as 100%. The half-life (t1/2 = ln(2)/k) in minutes and intrinsic clearance (Clint = k x 1000/(0.25)) in μL/min/mg were calculated using a nonlinear regression from the % remaining versus the incubation time. From this plot, the slope (k) was determined. The chromatogram for analysis was obtained on a Supelco Ascentis express C18 column (3 cm x 2.1 mm, 5 μM). The mobile phases consisted of water + 0.1% formic acid (A) and acetonitrile + 0.1% formic acid (B). The mobile phase was eluted in binary gradient mode, and the gradient was as follows: 0 min, 95% A; 0.05 mins. 95% A; 0.3 mins: 2% A; 0.7 mins: 2% A; 0.8 mins: 95% A; 1.15 mins 95% A; and 2.0 mins 95% A. The run time was 2 minutes, the sample injection volume was 10 μL, and the flow rate was 0.7 mL/min.

[2] = PBS pH 2.0, 24 h, read-out: Kinetic Solubility pH 2.0 (LogS) (converted)
[3] = PBS pH 7.4, 24 h, read-out: Kinetic Solubility pH 7.4 (LogS) (converted)
[4] = Leishmania infantum, THP-1, 120 h
[5] = CD1, mouse, read-out: Mouse liver microsome (MsLM) CLint(mic)
[6] = human, read-out: Human liver microsome (HLM) CLint(mic)

## C=C1[C@@H](C)[C@H]2[C@H](Cc3ccccc3)NC(=O)[C@]23OC(=O)/C=C/C(=O)CCC[C@@H](C)C/C=C/[C@H]3[C@@H]1O [Cytochalasin A]
physchem; [2]
  solubility kinetic: 39.8 µM (≈ 19 µg/mL)
physchem; [3]
  solubility kinetic: 69.2 µM (≈ 33 µg/mL)
[1]; [4]
  IC50: 2.76 ± 1.17 µM
[1]
  SI^2 (CC50 THP-1/IC50 L. infantum): 6.17
  SI^4 (CC50 HepG2/IC50 L. infantum): 7.65
In vitro; [5]
  microsomal CLint: 167 ± 9.12 µL/min/mg
In vitro; [6]
  microsomal CLint: 7.86 ± 2.05 µL/min/mg

## C=C1[C@@H](C)[C@H]2[C@H](Cc3ccccc3)NC(=O)[C@]23OC(=O)/C=C/[C@H](O)CCC[C@@H](C)C/C=C/[C@H]3[C@@H]1O [Cytochalasin B]
physchem; [2]
  solubility kinetic: 77.6 µM (≈ 37.2 µg/mL)
physchem; [3]
  solubility kinetic: 77.6 µM (≈ 37.2 µg/mL)
[1]; [4]
  IC50: 22 to 23 µM
[1]
  IC50: 23.9 ± 3.02 µM
  SI^2 (CC50 THP-1/IC50 L. infantum): 4.57
  SI^4 (CC50 HepG2/IC50 L. infantum): 1.93
In vitro; [5]
  microsomal CLint: 62.9 µL/min/mg
In vitro; [6]
  microsomal CLint: 217 ± 6.05 µL/min/mg

## CC(=O)OC1C=CC(C)(O)C(=O)C(C)CC=CC2C(O)C(C)=C(C)C3C(Cc4ccccc4)NC(=O)C123 (stereo not drawn) [Cytochalasin C]
physchem; [2]
  solubility kinetic: 17 µM (≈ 8.62 µg/mL)
physchem; [3]
  solubility kinetic: 46.8 µM (≈ 23.7 µg/mL)
[1]; [4]
  IC50: 23.2 ± 4.9 µM
[1]
  SI^2 (CC50 THP-1/IC50 L. infantum): 3.65
  SI^4 (CC50 HepG2/IC50 L. infantum): 0.96
In vitro; [6]
  microsomal CLint: 144 ± 15.8 µL/min/mg

## C=C1[C@@H](C)[C@H]2[C@H](Cc3ccccc3)NC(=O)[C@]23[C@H](OC(C)=O)/C=C/[C@@](C)(O)C(=O)[C@@H](C)C/C=C/[C@H]3[C@@H]1O [Cytochalasin D]
physchem; [2]
  solubility kinetic: 42.7 µM (≈ 21.7 µg/mL)
physchem; [3]
  solubility kinetic: 46.8 µM (≈ 23.7 µg/mL)
[1]; [4]
  IC50: 22.5 ± 0.97 µM
[1]
  SI^2 (CC50 THP-1/IC50 L. infantum): 5.42
  SI^4 (CC50 HepG2/IC50 L. infantum): 5.46
In vitro; [5]
  microsomal CLint: 163 ± 22.4 µL/min/mg
